One test has as its system depilated C57BL/6 mice. As to the kind of experiment: Dorsal hair regrowth in depilated mice. Format: in vivo. An excerpt:
Animals and in vivo studies. Seven-week-old male C57BL/6 mice were purchased from Jackson laboratory and allowed to adapt to their new environment for 1 week. Hair was removed by using depilatory cream to observe the pink skin. Then, animals were randomly divided into groups (n=5) randomly to investigate hair regrowth. Minoxidil was topically applied daily as a positive control. Other treatments were given subcutaneously. All work with mice was in accordance with IACUC. Cell treatment dose: 1.0×10^6 cells in 200 μL PBS were subcutaneously injected into 10 spots (20 μL per site) on the left side of the dorsal skin. Exosome treatment dose: 2.0×10^9 exosomes in 200 μL PBS were subcutaneously injected to 10 spots (20 μL per site) on the left side of the backs. Negative control, miR-218-5p mimics and inhibitors (Sigma-Aldrich): administered according to the protocol provided by in vivo-jetPEI™ (Polyplus transfection). In brief, mice received ten injections per depilated dorsal skin. 400 ng miRNA mimic or inhibitor was dissolved in 90 μl 5% glucose (w/v) solution, and then 10 μl in vivo-jet PEI solution was added. Vortex-mix the solution immediately and incubate for 15 minutes at room temperature before injection. […]
The state of hair re-growth in depilated mice was photographed on days 0, 10, 15, and 20, and hair growth area was analyzed via morphological observation (FIGS. 3A-3D). […]

The next test has as its system β-catenin. As to the kind of experiment: Immunostaining of β-catenin in dorsal skin hair follicles ten days after treatment. Format: in vivo, C57BL/6 mice. Conditions: treated side, day 10.
For a further test, the system named is Ki67. As to the kind of experiment: Immunostaining of Ki67 in dorsal skin hair follicles ten days after treatment. Format: in vivo, C57BL/6 mice. The conditions noted are these: day 10.
In a further test the test system is CD133. As to the kind of experiment: Immunostaining of CD133 in dorsal skin hair follicles ten days after treatment. Format: in vivo, C57BL/6 mice. The conditions noted are these: treated side, day 10.

From the text for CD133: (§1) Animals and in vivo studies. Seven-week-old male C57BL/6 mice were purchased from Jackson laboratory and allowed to adapt to their new environment for 1 week. Hair was removed by using depilatory cream to observe the pink skin. Then, animals were randomly divided into groups (n=5) randomly to investigate hair regrowth. Minoxidil was topically applied daily as a positive control. Other treatments were given subcutaneously. All work with mice was in accordance with IACUC. Cell treatment dose: 1.0×10^6 cells in 200 μL PBS were subcutaneously injected into 10 spots (20 μL per site) on the left side of the dorsal skin. Exosome treatment dose: 2.0×10^9 exosomes in 200 μL PBS were subcutaneously injected to 10 spots (20 μL per site) on the left side of the backs. Negative control, miR-218-5p mimics and inhibitors (Sigma-Aldrich): administered according to the protocol provided by in vivo-jetPEI™ (Polyplus transfection). In brief, mice received ten injections per depilated dorsal skin. 400 ng miRNA mimic or inhibitor was dissolved in 90 μl 5% glucose (w/v) solution, and then 10 μl in vivo-jet PEI solution was added. Vortex-mix the solution immediately and incubate for 15 minutes at room temperature before injection. Control groups were injected with mimic control.
(§2) Skin tissue histology. Mice were euthanized and the whole dorsal skin was removed. […]
From the text for Ki67: as §1, §2
From the text for β-catenin: as §1, §2

`Nc1cc(N2CCCCC2)nc(N)[n+]1[O-]` [5% minoxidil, minoxidil]: the fur coverage in the test on depilated C57BL/6 mice (day 15, treated side) is recorded as 35%; in the test with depilated C57BL/6 mice (day 15, untreated side), 10%. Besides, the “expression of β-catenin (β-catenin positive cells)” value with β-catenin is given as 2.3%. Further, the values for the Ki67 signals in the test with Ki67 (non-treated side) and with Ki67 (treated side) were 7.1% and 37.2%, respectively. Further, the “expression of CD133 (CD133 positive cells)” value with CD133 is given as 7.2%.
